Data: US10426755B2, “Methods for inhibiting cancer cells” (Chang Gung Memorial Hospital, Chiayi, priority 2015, dated 2019)
“Also recorded” adds a separate entry of the source.

Columns and labels:
Type in all cases: cell-based
[1] = system: ARK1 endometrial cancer cells; test: XTT proliferation assay, ARK1; details: 5, 10 and 20 μM DT, 1-2 days, FIG. 4
Protocol: (§1) The prostate cancer cells were plated at a density of 10^3 or 3×10^3 per well, in a 96-well plate, in a medium containing 10% Fetal bovine serum (FBS) (Gibco®, commercially available from Life Technologies, USA). Once the prostate cancer cells were attached to the culture dish, the 10% FBS medium was replaced with a second 10% FBS medium and each of the prostate cancer cell line was treated with 1, 5, and 10 μM of DT respectively for 1-2 days. The absorbance was measured using XTT assay kit (commercially available from Roche, Switzerland) at 492 nm using an ELISA reader (Bio-Rad Laboratories, USA).
(§2) An in vitro evaluation of the effect of DT on endometrial cancer cells was performed. The endometrial cancer cell lines, ARK1 and ARK2, were provided by Dr. T H Wang at Chang Gung Meorial Hospital, Linkou, Taiwan)
(§3) The endometrial cancer cells were cultured and plated according to the steps in Example 1 and each of the endometrial cancer cell line was treated with 0 (control), 5, 10 and 20 μM of DT, respectively for 1-2 days. The absorbance was measured using XTT assay kit at 492 nm using an ELISA reader.

[2] = system: γ-H2AX and phosphorylated-ATM in A549 and chemotherapy-resistant/metastatic H460 lung cancer cells; test: Western blot of DNA damage response proteins, lung cancer cells; details: various concentrations of DT, vs control vehicle; dose dependent; FIG. 10 (a)-(b)
Protocol: An in vitro evaluation on the damage effect of DT on cancer cells was performed, using prostate cancer cells (metastatic LNCaP and metastatic DU145, hormone therapy resistant and metastatic PC3 and 22RV1) and lung cancer cells (A549 and chemotherapy-resistant/metastatic H460).
Cancer cells were treated with a control vehicle, dihydrotestosterone (DHT), and various concentrations of DT between 6 to 24 hours. Cellular extracts of treated cancer cells were analyzed using Western Blot.

[3] = system: breast cancer cell lines (MDA-MB-231, MCF-7 and tamoxifen-resistant MCF-7); test: XTT proliferation assay, breast cancer cells; details: 0, 5, 10 and 20 μM DT, 1-3 days, FIG. 3
Protocol: as §1
An in vitro evaluation of the effect of DT on the breast cancer cells was performed. The breast cancer cell lines, MDA-MB-231, MCF-7 and tamoxifen-resistant MCF-7 breast cancer cells were obtained from Bioresource Collection and Research Center, Taiwan. The breast cancer cells were cultured in Eagle's Minimum Essential Medium containing 10% charcoal-stripped fetal bovine serum and plated according to the steps in Example 1 and each of the breast cancer cell line was treated with 0 (control), 5, 10 and 20 μM of DT, respectively for 1-3 days. The absorbance was measured using XTT assay kit at 492 nm using an ELISA reader.

[4] = system: ARK2 endometrial cancer cells; test: XTT proliferation assay, ARK2; details: 5, 10 and 20 μM DT, 1-2 days, FIG. 4
Protocol: as §1, §2, §3

[5] = system: breast cancer cells (MCF-7, tamoxifen-resistant MCF7 and MDA MB-231); test: Annexin V/PI flow cytometry apoptosis/necrosis, breast cancer cells; details: 10 or 20 μM DT, 24-48 hours, vs PBS and control; time dependent; FIG. 8
Protocol: The effect of DT on metastatic prostate cancer cells (hormone therapy-resistant PC3, DU145 and LNCaP); lung cancer cells (A549 and chemotherapy-resistant/metastatic H460); and breast cancer cells (MCF-7, tamoxifen-resistant MCF7 and MDA MB-231) was assessed.
1×10^6 Cancer cells were seeded in a 100-mm plate and cultured overnight. The cancer cells were treated with phosphate buffered saline (PBS), a Dimethyl sulfoxide (DMSO) vehicle (CT), 10 or 20 μM of DT for 24-48 hours, then collected and washed with cold PBS. The supernatant was removed by centrifugation and resuspended in FITC Annexin V binding buffer and Propidium iodide (PI) (Annexin V-FITC Apoptosis Detection Kit, commercially available from Strong Biotech Corporation, Taiwan). The suspended cancer cells were stained at room temperature, in the dark for 15 min and analyzed by the BD FACSCanto™ flow cytometry (Becton Dickinson, USA). The amount of early apoptosis, late apoptosis, and necrosis was measured as the percentage of annexin-V positive/PI negative (Q4 in the FACS images), annexin-V positive/PI positive (Q2 in the FACS images), and annexin-V negative/PI positive cells (Q1 in the FACS images), respectively. Normal cells are in […] of the FACS images.

[6] = system: CCL2 in RAW264.7 macrophages; test: CCL2 ELISA of culture medium, RAW264.7 macrophages; details: 5 or 10 μM DT, 24 hours, vs DMSO, FIG. 14 (a)
Protocol: It has been reported that increased CCL2 expression enhances cancer cell metastasis via macrophage recruitment. The effect of DT on CCL2 expression in RAW264.7 macrophages, THP1 monocytes and prostate cancer cells (metastatic DU145 and hormone therapy resistant and metastatic PC3) was examined by treating the cells with DMSO (control), 5 or 10 μM DT for 24 hours.
The culture medium was collected and the concentration of CCL2 was measured using ELISA assay.

[7] = system: prostate cancer cell lines (LNCaP, hormone therapy-resistant PC3, DU145 and 22RV1); test: XTT proliferation assay, prostate cancer cells; details: 1, 5 and 10 μM DT, 1-2 days, XTT absorbance 492 nm; FIG. 1
Protocol: An in vitro evaluation of the effect of dihydroisotanshinone I (DT) on the following prostate cancer cell lines was performed: LNCaP (with lymph node metastasis), hormone therapy resistant PC3 (with bone metastasis), 22RV1, DU145 (with brain metastasis), were obtained from Bioresource Collection and Research Center, Taiwan and DT was purchased from ChemFaces Co., Ltd., China.
as §1

Cc1cccc2c3c(ccc12)C(=O)C1=C(OCC1C)C3=O (stereo not shown) [DT, dihydroisotanshinone I]
inhibition of ARK1 endometrial cancer cells [1]: effective in inhibiting ARK1 and ARK2 endometrial cancer cells
DNA damage response proteins (γ-H2AX and phosphorylated-ATM), lung cancer cells [2]: increase in DNA damage response proteins (γ-H2AX and phosphorylated-ATM); also recorded: increased the DNA damage response proteins (γ-H2AX, phosphorylated-ATM)
inhibition of breast cancer cells (proliferation) [3]: effective in inhibiting breast cancer cells, even for the tamoxifen-resistant MCF-7 breast cancer cells, in a dose dependent and time dependent fashion
inhibition of ARK2 endometrial cancer cells [4]: effective in inhibiting ARK1 and ARK2 endometrial cancer cells
early apoptosis, late apoptosis and necrosis, breast cancer cells [5]: more early apoptosis, late apoptosis and necrosis
production of CCL2 in macrophages [6]: effectively inhibit the production of CCL2
inhibition of prostate cancer cell proliferation [7]: inhibits prostate cancer cell proliferation in a dose dependent fashion
